Patent publication US8114850B2, “Antiproliferative activity of G-rich oligonucleotides and method of using same to bind to nucleolin” (Advanced Cancer Therapeutics, LLC, priority 1999, dated 2012)

Assays:
Stability in serum = assay type: in vitro ADME
Protocol: The effects of four G-rich phosphodiester oligonucleotides (GROs) on the growth of tumor cells in culture were tested. These oligonucleotides consisted entirely of deoxyguanosine and thymidine and contained at least two contiguous guanosines. For increased stability to serum nucleases, oligonucleotides were modified at the 3′-terminus with a propylamino group. This modification protects the oligonucleotides from degradation in serum containing medium for at least twenty-four hours.

tumor cells = assay: In-vitro experiments with SEQ ID NO:12 in tumor cells; assay type: cell-based
Text: SEQ ID NO: 12, a G-rich oligonucleotide (GRO) aptamer comprising a single-strand oligonucleotide of 26 bases, was selected for the study. […] Preclinical data indicates potential of SEQ ID NO: 12 against a wide variety of solid and hematologic malignancies.

[1] = test system: advanced, metastatic RCC (renal-cell carcinoma); assay: Phase 1 study, RCC patients; assay type: in vivo, human
Protocol: (§1) A Phase 1, open label, non-randomized dose escalation study of SEQ ID NO:12 was conducted on 17 human individuals with various advanced malignancies. […] After these 17 individuals had received treatment, only individuals with RCC (renal-cell carcinoma) or non-small-cell lung cancer (NSCLC) were enrolled in the clinical trial to obtain data for more homogenous patient populations and thereby enhance the quality of the results.
Following these findings, the trial was extended to include additional individuals (“patients”) with RCC (renal-cell carcinoma) or non-small-cell lung cancer. All of said individuals had progressive, metastatic cancers upon entry to the study. It should be noted that none of the individuals had received chemotherapy, radiotherapy or any investigational agent for cancer within the 4 weeks prior to entry to the study or 6 weeks prior for nitrosourea or mitomycin C. All individuals enrolled in the study were evaluable for toxicity and response and had measurable disease, i.e. able to be measured accurately in one or more dimension(s). Participants of the study were recruited at one site: the University of Louisville, James Brown Cancer Center, in Louisville, Ky., USA. The study was conducted in accordance with Good Clinical Practices and the Declaration of Helsinki. Institutional Review Board approval and informed patient consent were obtained before the study began.
(§2) The SEQ ID NO:12 aptamer was administered to individuals as a continuous intravenous infusion. All individuals received one or two cycles of treatment. The dose escalation protocol provided a division of the subjects into cohorts of 3 in sequential order. If no individuals in a cohort experienced DLT within […] of treatment, the dosage was escalated to the next level. The dosage was increased up to 10 mg/kg/day for 7 days in the first 17 individuals and increased up to 40 mg/kg/day for 7 days in the RCC/NSCLC extension. The original starting dose was about 1 mg/kg/day for 4 days for both sets of individuals.
If no subject in the first cohort experienced DLT within 14 days of treatment, the dose for the next cohort was escalated to the next level. […] For this study, DLT was identified as grade 3-4 non-hematological toxicity, grade 4 hematological toxicity that persisted for 3 or more days, grade 4 febrile neutropenia, or grade 4 thrombocytopenia with bleeding. Toxicity was graded according to the National Cancer Institute Common Terminology for Adverse Events (“NCI-CTCAE”) version 3.0.
Dose escalation was accomplished by doubling until a biological effect was noted (i.e., by development of NCI-CTCAE grade 2 toxicity), at which point the dose was escalated using a modified Fibonacci design (dose increments to 1.6 times the pervious dose level). The maximum dose for the study was 40 mg/kg/day.
(§3) Baseline evaluations included medical history, 12-lead electrocardiogram, safety assessments and tumor measurements within 1 week of the start of the study. Individuals were monitored in the hospital during infusion of the SEQ ID NO:12 aptamer (days 1-8) and then evaluated subsequently on days 15, 29 and 58.
Efficacy was assessed by tumor measurements and radiological evaluation at baseline ([…] to the start of the study), at day 29 and day 58.
Tumor measurements were conducted using photographs (skin lesions), chest X-rays, CT scans, magnetic resonance imaging (MRI) and ultrasound. The assessments of tumor measurements were conducted using the Response Evaluation Criteria in Solid Tumors (RECIST) guidelines. See Arbuck et al., (2000) Journal Nat'l Cancer Inst., 92: 205-16. All tumor measurements were taken in metric notation using a ruler or caliper.
As a preliminary note, tumor response was evaluated using RECIST guidelines and categorized as complete response (CR), partial response (PR), stable disease (SD) or progressive disease (PD). […]

[2] = test system: non-small-cell lung cancer (NSCLC); assay: Phase 1 study, NSCLC patients; assay type: in vivo, human; conditions: RECIST
Protocol: as §1
Following these findings, the trial was extended to include additional individuals (“patients”) with RCC (renal-cell carcinoma) or non-small-cell lung cancer. All of said individuals had progressive, metastatic cancers upon entry to the study. […] All individuals enrolled in the study were evaluable for toxicity and response and had measurable disease, i.e. able to be measured accurately in one or more dimension(s). […]
as §3
Efficacy was assessed by tumor measurements and radiological evaluation at baseline ([…] to the start of the study), at day 29 and day 58. […]

Phase 1 study, toxicity = assay type: in vivo, human; conditions: doses up to 40 mg/kg/day for up to 7 days, continuous i.v. infusion
Protocol: as §2
If no subject in the first cohort experienced DLT within 14 days of treatment, the dose for the next cohort was escalated to the next level. […] For this study, DLT was identified as grade 3-4 non-hematological toxicity, grade 4 hematological toxicity that persisted for 3 or more days, grade 4 febrile neutropenia, or grade 4 thrombocytopenia with bleeding. […]
as §3

[3] = target: T1, G-rich oligonucleotide binding protein / nucleolin (Homo sapiens, UniProt P19338); assay: Protein binding, summary statements (EMSA); conditions: characterization of the aptamer
T1 construct: endogenous in cells; MDA-MB-231)
T1 sequence (P19338 whole entry): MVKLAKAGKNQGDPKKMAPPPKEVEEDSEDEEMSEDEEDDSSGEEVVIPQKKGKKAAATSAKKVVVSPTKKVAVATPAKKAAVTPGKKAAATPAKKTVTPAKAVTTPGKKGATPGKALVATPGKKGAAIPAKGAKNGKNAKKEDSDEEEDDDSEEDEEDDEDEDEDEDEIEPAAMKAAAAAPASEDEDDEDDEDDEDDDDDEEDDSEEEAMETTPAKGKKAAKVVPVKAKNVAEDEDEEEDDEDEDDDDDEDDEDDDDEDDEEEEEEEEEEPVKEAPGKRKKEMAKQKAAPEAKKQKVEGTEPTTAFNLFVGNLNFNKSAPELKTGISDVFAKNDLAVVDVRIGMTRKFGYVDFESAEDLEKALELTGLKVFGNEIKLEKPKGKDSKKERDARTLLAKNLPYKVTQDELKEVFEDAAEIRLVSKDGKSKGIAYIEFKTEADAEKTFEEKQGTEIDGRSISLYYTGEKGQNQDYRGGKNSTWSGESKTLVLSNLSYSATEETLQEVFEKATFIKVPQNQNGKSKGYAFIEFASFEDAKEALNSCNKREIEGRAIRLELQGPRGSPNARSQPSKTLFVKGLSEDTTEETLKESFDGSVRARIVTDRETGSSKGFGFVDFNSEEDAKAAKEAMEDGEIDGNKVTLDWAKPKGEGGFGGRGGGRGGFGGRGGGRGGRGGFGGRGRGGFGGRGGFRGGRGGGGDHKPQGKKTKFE
Text: By G-rich oligonucleotide (GRO) it is meant that the oligonucleotides consist of 4-100 nucleotides (preferably 10-30 nucleotides) with DNA, RNA, 2′-O-methyl, phosphorothioate or other chemically similar backbones. Their sequences contain one or more GGT motifs. The oligonucleotides have antiproliferative activity against cells and bind to GRO binding protein and/or nucleolin.
Additionally, the present invention provides a method for selecting oligonucleotides that bind to nucleolin. The method utilizes an electrophoretic mobility shift assay (EMSA), as described below, to screen for oligonucleotides that bind strongly to nucleolin and which, therefore, would be expected, according to the present invention, to have anti-proliferative activity. Oligonucleotides to be screened as potential antiproliferative agents are labeled and then incubated with nuclear extracts in the absence or presence of unlabeled competitor oligonucleotide and are allowed to react. The reaction mixtures are then electrophoresed and mobility shifts and/or bond intensity can be used to identify those oligonucleotides which have bound to the specific protein.
Alternatively, unlabeled compounds to be screened are incubated with nuclear extracts in the presence of labeled oligonucleotide (for example 5′-TTAGGGTTAGGGTTAGGG TTAGGG) (SEQ ID NO: 20) and binding is assessed by a decrease in the intensity of the shifted band, as in FIG. 6B.

5′-GGTGGTGGTGGTTGTGGTGG TGGTGG-3′ [SEQ ID NO:12]
stability in serum (Stability in serum): extremely stable and resistant to degradation by serum enzymes
anti-proliferative response in tumor cells (tumor cells): strong anti-proliferative response
metastasis, first RCC responder ([1]; 18 months after treatment): single brain metastasis
disease status, first RCC responder ([1]; 26 months after one seven-day infusion at 10 mg/kg): no evidence of disease
clinical benefit (CR+PR+SD) ([1]; RCC patients, RECIST): 75%
response rate (CR+PR) ([1]; RCC patients, continuous i.v. infusion, up to 40 mg/kg/day for up to 7 days, RECIST): 17%
complete response ([1]; RCC subjects, RECIST): 8.4%
partial response ([1]; RCC subjects, RECIST): 8.4%
stable disease for the duration of the study ([1]; RCC subjects, RECIST): 58%
decrease in the sum of greatest linear dimensions of target lesions from baseline ([1]; second RCC responder, two seven-day infusions at 22 mg/kg): about 70%
stable disease for the duration of the study [2]: 40%
tolerability / toxicity (Phase 1 study, toxicity): well tolerated with no serious toxicity of any type related to drug administration
specificity of binding [3]: specificity for nucleolin
